How the values were obtained:
Staphylococcus aureus [1] = test: Antibacterial activity against Staphylococcus aureus ATCC 29213 assessed as inhibition of bacterial growth incubated for 24 hrs by broth microdilution method; type: functional
[2] = Drug uptake in Sprague-Dawley rat kidney at 5 mg/kg, iv measured for 6 hrs by LC-MS/MS analysis; type: ADME, organism-based; conditions: in vivo
[3] = system: Mycoplasmoides gallisepticum; test: Anti-mycoplasma activity against Mycoplasma gallisepticum NCTC10115 assessed as inhibition of bacterial growth incubated for 3 to 5 days by broth microdilution method; type: functional; conditions: time 3-5 day
Staphylococcus aureus [4] = test: Antibacterial activity against methicillin-resistant Staphylococcus aureus ATCC 43300 assessed as inhibition of bacterial growth incubated for 24 hrs by broth microdilution method; type: functional
[5] = Cytotoxicity against human HepG2 cells assessed as reduction in cell viability incubated for 24 hrs by CCK8 assay; type: toxicity, cell-based
[6] = Observed AUC (0 to infinity) in Sprague-Dawley rat at 10 mg/kg, po; type: ADME, organism-based; conditions: in vivo
[7] = Observed apparent volume of distribution during terminal phase in Sprague-Dawley rat at 10 mg/kg, po; type: ADME, organism-based; conditions: in vivo, read-out: Vz/F_obs

With `C=C[C@]1(C)C[C@@H](OC(=O)CSc2nc3cc[n+](Cc4ccc(C)cc4)cc3[nH]2)[C@]2(C)[C@H](C)CC[C@]3(CCC(=O)[C@H]32)[C@@H](C)[C@@H]1O.[Br-]` the MIC (Staphylococcus aureus [1]) was under 1 µg/mL, the Drug uptake [2] was “Active” and the MIC [3] was under 0.04 µg/mL. The MIC (Staphylococcus aureus [4]) was under 1 µg/mL, the CC50 at 24 h [5] was over 100 µM and the AUC(0-inf) [6] was 15800 ng·h/mL. For the same compound, the Vd/F [7] was 1.43 L/kg.
